The values below come from patent US12577226B2, “Compounds for treating Huntington's disease” (PTC THERAPEUTICS, INC., priority 2019, dated 2026).

This test concerns Endogenous Huntingtin Protein (capture with MW1 (expanded polyglutamine) or MAB2166 antibody). In words: Endogenous Huntingtin Protein Assay (ELISA-based Meso Scale Discovery electrochemiluminescence assay). The test is classed as cell-based. Particulars: MSD electrochemiluminescence platform. The procedure, abridged:
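MSD electrochemiluminescence sandwich immunoassay: plates coated with 1 μg/mL MW1 or MAB2166 capture antibody, samples incubated overnight at 4 °C. Detection with rabbit monoclonal #5656S then SULFO-TAG anti-rabbit (each 0.25 μg/mL, 1 h RT).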
(An ELISA detects its analyte on a solid surface through an enzyme-linked reagent.)
Take `CCc1cc(-c2cnc(-c3cnc(N4CC[C@@H](NC(C)(C)C)C4)nn3)c(O)c2)cn2cc(C)nc12` [Compound 148, 2-{3-[(3R)-3-(tert-butylamino)pyrrolidin-1-yl]-1,2,4-triazin-6-yl}-5-(8-ethyl-2-methylimidazo[1,2-a]pyridin-6-yl)pyridin-3-ol]: the IC50 is 100 to 500 nM. In the case of `COc1cc(-c2cnc(-c3cnc(N4CCN(C)CC4)nn3)c(O)c2)cc2cn(C)nc12` [Compound 150, 5-(7-methoxy-2-methyl-2H-indazol-5-yl)-2-[3-(4-methylpiperazin-1-yl)-1,2,4-triazin-6-yl]pyridin-3-ol] it was no more than 100 nM; in that of `Cc1cn2cc(-c3cnc(-c4cnc(N5CCN(C)CC5)nn4)c(O)c3)cc(F)c2n1` [Compound 151, 5-(8-fluoro-2-methylimidazo[1,2-a]pyridin-6-yl)-2-[3-(4-methylpiperazin-1-yl)-1,2,4-triazin-6-yl]pyridin-3-ol], no more than 100 nM; in that of `CN1CCN(c2ncc(-c3ncc(-c4cn[nH]c4)cc3O)nn2)CC1` [Compound 152, 2-[3-(4-methylpiperazin-1-yl)-1,2,4-triazin-6-yl]-5-(1H-pyrazol-4-yl)pyridin-3-ol], 500 to 1000 nM. For `Cc1cn2cc(-c3cnc(-c4cnc(N5CCN(C)CC5)nn4)c(O)c3)cc(C)c2n1` [Compound 153, 5-(2,8-dimethylimidazo[1,2-a]pyridin-6-yl)-2-[3-(4-methylpiperazin-1-yl)-1,2,4-triazin-6-yl]pyridin-3-ol] the value was no more than 100 nM. As for `Cc1cnc(Nc2cnc(-c3cnc(N4CCN[C@@H](C(C)C)C4)nn3)c(O)c2)cn1` [Compound 154, 5-[(5-methylpyrazin-2-yl)amino]-2-[3-[(3S)-3-(propan-2-yl)piperazin-1-yl]-1,2,4-triazin-6-yl}pyridin-3-ol], the IC50 was no more than 100 nM. Regarding `CC(C)[C@H]1CN(c2ncc(-c3ncc(-c4cc(F)c5nn(C)cc5c4)cc3O)nn2)CCN1` [Compound 155, 5-(7-fluoro-2-methyl-2H-indazol-5-yl)-2-{3-[(3S)-3-(propan-2-yl)piperazin-1-yl]-1,2,4-triazin-6-yl}pyridin-3-ol], the IC50 is no more than 100 nM.

`CC(C)[C@H]1CN(c2ncc(-c3ncc(-n4nccn4)cc3O)nn2)CCN1` [Compound 156, 2-{3-[(3S)-3-(propan-2-yl)piperazin-1-yl]-1,2,4-triazin-6-yl}-5-(2H-1,2,3-triazol-2-yl)pyridin-3-ol] yielded an IC50 of 100 to 500 nM. For `Cn1nc2cc(-c3cnc(-c4cnc(N5CCN[C@@H](C6CC6)C5)nn4)c(O)c3)cnc2n1` [Compound 157, 2-{3-[(3S)-3-cyclopropylpiperazin-1-yl]-1,2,4-triazin-6-yl}-5-(2-methyl-2H-[1,2,3]triazolo[4,5-b]pyridin-6-yl)pyridin-3-ol], the half-maximal inhibitory concentration (IC50) is no more than 100 nM.

As to `Cn1cc2cc(-c3cnc(-c4cnc(N5CCN[C@@H](C6CC6)C5)nn4)c(O)c3)cc(F)c2n1` [Compound 158, 2-{3-[(3S)-3-cyclopropylpiperazin-1-yl]-1,2,4-triazin-6-yl}-5-(7-fluoro-2-methyl-2H-indazol-5-yl)pyridin-3-ol], the IC50 is no more than 100 nM.

`Oc1cc(-n2nccn2)cnc1-c1cnc(N2CCN[C@@H](C3CC3)C2)nn1` [Compound 159, 2-{3-[(3S)-3-cyclopropylpiperazin-1-yl]-1,2,4-triazin-6-yl}-5-(2H-1,2,3-triazol-2-yl)pyridin-3-ol] gave an IC50 of 100 to 500 nM. In the case of `Cc1cnc(Nc2cnc(-c3cnc(N4CCN[C@@H](C5CC5)C4)nn3)c(O)c2)cn1` [Compound 160, 2-{3-[(3S)-3-cyclopropylpiperazin-1-yl]-1,2,4-triazin-6-yl}-5-[(5-methylpyrazin-2-yl)amino]pyridin-3-ol] it was no more than 100 nM; in that of `CN(c1cnc(-c2ncc(-n3nccn3)cc2O)nn1)C1CC(C)(C)NC(C)(C)C1` [Compound 161, 2-{6-[methyl(2,2,6,6-tetramethylpiperidin-4-yl)amino]-1,2,4-triazin-3-yl}-5-(2H-1,2,3-triazol-2-yl)pyridin-3-ol], no more than 100 nM. For `CN(c1cnc(-c2ncc(-c3cn[nH]c3)cc2O)nn1)C1CC(C)(C)NC(C)(C)C1` [Compound 162, 2-{6-[methyl(2,2,6,6-tetramethylpiperidin-4-yl)amino]-1,2,4-triazin-3-yl}-5-(1H-pyrazol-4-yl)pyridin-3-ol] the value was no more than 100 nM; for `CC1(C)CC(Nc2cnc(-c3ncc(-n4nccn4)cc3O)nn2)CC(C)(C)N1` [Compound 163, 2-{6-[(2,2,6,6-tetramethylpiperidin-4-yl)amino]-1,2,4-triazin-3-yl}-5-(2H-1,2,3-triazol-2-yl)pyridin-3-ol], no more than 100 nM. In the case of `C[C@@H]1CN(c2cnc(-c3ncc(-c4cc(F)c5nn(C)cc5c4)cc3O)nn2)C[C@H](C)N1` [Compound 164, 2-{6-[(3R,5S)-3,5-dimethylpiperazin-1-yl]-1,2,4-triazin-3-yl}-5-(7-fluoro-2-methyl-2H-indazol-5-yl)pyridin-3-ol and 2-{6-[(3S,5R)-3,5-dimethylpiperazin-1-yl]-1,2,4-triazin-3-yl}-5-(7-fluoro-2-methyl-2H-indazol-5-yl)pyridin-3-ol] it was 100 to 500 nM.

By IC50 is commonly meant the concentration needed to halve the response being measured. Low values mean inhibition by little substance, high ones a need for much substance.
